Assay results: ChEMBL document CHEMBL4665665, “4-Aryl Pyrrolidines as Novel Orally Efficacious Antimalarial Agents. Part 2: 2-Aryl-N-(4-arylpyrrolidin-3-yl)acetamides” (ACS Med Chem Lett, 2019)
pIC50: −log10 of the molar value. Calls of active or inactive are those of the source. The calls are words filed in the database; no cut-off is given here.

Legend:
[1] = Plasma concentration in NIH mouse infected with Plasmodium chabaudi ASS at 3 mg/kg, po qd for 4 days starting from 4 hrs post-parasite inoculation and measured at 6 hrs post-dosing on day 4 by LC/MS analysis; assay type: ADME, organism-based; settings: dose 3 mg/kg/day, time 4 day
[2] = molecular target: Cytochrome P450 2D6 (Homo sapiens, UniProt P10635); assay: Inhibition of recombinant human CYP2D6 expressed in baculovirus infected insect cells using dextromethorphan as substrate incubated for 30 mins in presence of NADPH-regenerating system by fluorescence based assay; assay type: ADME
[3] = tested on: HepG2; assay: Cytotoxicity against human HepG2 cells assessed as cell viability at 5 uM incubated for 72 hrs by PrestoBlue cell viability reagent based assay; settings: hepg2, 72 h
[4] = molecular target: T1, Cytochrome P450 1A2 (Homo sapiens, UniProt P05177); assay: Inhibition of recombinant human CYP1A2 expressed in baculovirus infected insect cells using phenacetin as substrate incubated for 30 mins in presence of NADPH-regenerating system by fluorescence based assay; assay type: ADME
T1 sequence (P05177 whole entry): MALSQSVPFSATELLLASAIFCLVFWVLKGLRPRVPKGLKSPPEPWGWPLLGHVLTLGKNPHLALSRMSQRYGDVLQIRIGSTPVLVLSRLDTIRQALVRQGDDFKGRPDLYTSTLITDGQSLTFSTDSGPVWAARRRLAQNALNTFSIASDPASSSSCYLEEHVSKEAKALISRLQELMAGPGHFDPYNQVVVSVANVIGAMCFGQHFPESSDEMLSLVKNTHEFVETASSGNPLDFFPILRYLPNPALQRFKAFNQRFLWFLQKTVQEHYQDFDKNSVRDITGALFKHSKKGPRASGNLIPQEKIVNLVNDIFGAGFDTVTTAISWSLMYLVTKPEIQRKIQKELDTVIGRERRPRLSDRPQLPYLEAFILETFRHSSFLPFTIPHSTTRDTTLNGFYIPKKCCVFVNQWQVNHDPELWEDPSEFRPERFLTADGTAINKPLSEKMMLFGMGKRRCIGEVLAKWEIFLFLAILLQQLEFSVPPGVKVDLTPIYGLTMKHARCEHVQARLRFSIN

[5] = tested on: Plasmodium chabaudi; assay: Antimalarial activity against Plasmodium chabaudi ASS infected in NIH mouse assessed as inhibition of parasitemia at 10 mg/kg, po qd for 4 days starting from 4 hrs post-parasite inoculation and measured at 24 hrs after last-drug treatment by Peter's 4-day suppressive test relative to control; assay type: functional; settings: 96 h
[6] = Plasma concentration in NIH mouse infected with Plasmodium chabaudi ASS at 10 mg/kg, po qd for 4 days starting from 4 hrs post-parasite inoculation and measured at 24 hrs post-dosing on day 4 by LC/MS analysis; assay type: ADME, organism-based; settings: dose 10 mg/kg/day, time 4 day
[7] = molecular target: Cytochrome P450 2C19 (Homo sapiens, UniProt P33261); assay: Inhibition of recombinant human CYP2C19 expressed in baculovirus infected insect cells using s-mephenytoin as substrate incubated for 30 mins in presence of NADPH-regenerating system by fluorescence based assay; assay type: ADME
[8] = Apparent volume of distribution in KM mouse at 2 mg/kg, iv administered as cassette dosing measured up to 24 hrs by LC/MS analysis; assay type: ADME, organism-based; settings: in vivo, read-out: Vz
[9] = tested on: Plasmodium falciparum; assay: Antimalarial activity against CQ-sensitive Plasmodium falciparum 3D7 incubated for 72 hrs by SYBR Green-1 dye based fluorescence assay; assay type: functional, organism-based; settings: Plasmodium falciparum, 3D7, 72 h
[10] = Plasma concentration in NIH mouse infected with Plasmodium chabaudi ASS at 10 mg/kg, po qd for 4 days starting from 4 hrs post-parasite inoculation and measured at 6 hrs post-dosing on day 4 by LC/MS analysis; assay type: ADME, organism-based; settings: dose 10 mg/kg/day, time 4 day
[11] = Plasma concentration in NIH mouse infected with Plasmodium chabaudi ASS at 3 mg/kg, po qd for 4 days starting from 4 hrs post-parasite inoculation and measured at 24 hrs post-dosing on day 4 by LC/MS analysis; assay type: ADME, organism-based; settings: dose 3 mg/kg/day, time 4 day
[12] = tested on: Plasmodium falciparum; assay: Inhibition of Plasmodium falciparum plasmepsin 4 using PM-2 peptide substrate incubated for 60 mis by fluorescence based assay; settings: time 60.0 min
[13] = molecular target: Cytochrome P450 3A4 (Homo sapiens, UniProt P08684); assay: Inhibition of recombinant human CYP3A4 expressed in baculovirus infected insect cells using midazolam as substrate incubated for 30 mins in presence of NADPH-regenerating system by fluorescence based assay; assay type: ADME
[14] = Plasma concentration in NIH mouse infected with Plasmodium chabaudi ASS at 30 mg/kg, po qd for 4 days starting from 4 hrs post-parasite inoculation and measured at 1 hr post-dosing on day 4 by LC/MS analysis; assay type: ADME, organism-based; settings: dose 30 mg/kg/day, time 4 day
[15] = molecular target: Plasmepsin II (Plasmodium falciparum) (UniProt P46925); assay: Inhibition of Plasmodium falciparum plasmepsin 2 using PM-2 peptide substrate incubated for 60 mis by fluorescence based assay; settings: time 60.0 min
[16] = tested on: Plasmodium falciparum; assay: Antimalarial activity against multidrug resistant Plasmodium falciparum Dd2 incubated for 72 hrs by SYBR Green-1 dye based fluorescence assay; assay type: functional, organism-based; settings: Dd2, 72 h
[17] = molecular target: Beta-secretase 1 (Homo sapiens) (UniProt P56817); assay: Inhibition of recombinant human BACE1 using Mca-SEVNLDAEFRK(Dnp)RR-NH2 fluorogenic peptide as substrate incubated for 60 mis by fluorescence based assay; settings: time 60.0 min
[18] = Apparent clearance in KM mouse at 2 mg/kg, iv administered as cassette dosing measured up to 24 hrs by LC/MS analysis; assay type: ADME, organism-based; settings: in vivo
[19] = Plasma concentration in NIH mouse infected with Plasmodium chabaudi ASS at 10 mg/kg, po qd for 4 days starting from 4 hrs post-parasite inoculation and measured at 1 hr post-dosing on day 4 by LC/MS analysis; assay type: ADME, organism-based; settings: dose 10 mg/kg/day, time 4 day
[20] = Plasma concentration in NIH mouse infected with Plasmodium chabaudi ASS at 30 mg/kg, po qd for 4 days starting from 4 hrs post-parasite inoculation and measured at 6 hrs post-dosing on day 4 by LC/MS analysis; assay type: ADME, organism-based; settings: dose 30 mg/kg/day, time 4 day
[21] = Plasma concentration in NIH mouse infected with Plasmodium chabaudi ASS at 30 mg/kg, po qd for 4 days starting from 4 hrs post-parasite inoculation and measured at 24 hrs post-dosing on day 4 by LC/MS analysis; assay type: ADME, organism-based; settings: dose 30 mg/kg/day, time 4 day
[22] = tested on: Plasmodium chabaudi; assay: Antimalarial activity against Plasmodium chabaudi ASS infected in NIH mouse assessed as inhibition of parasitemia at 30 mg/kg, po qd for 4 days starting from 4 hrs post-parasite inoculation and measured at 24 hrs after last-drug treatment by Peter's 4-day suppressive test relative to control; assay type: functional; settings: 96 h
[23] = Half life in KM mouse at 2 mg/kg, iv administered as cassette dosing measured up to 24 hrs by LC/MS analysis; assay type: ADME, organism-based; settings: in vivo
[24] = Plasma concentration in NIH mouse infected with Plasmodium chabaudi ASS at 3 mg/kg, po qd for 4 days starting from 4 hrs post-parasite inoculation and measured at 1 hr post-dosing on day 4 by LC/MS analysis; assay type: ADME, organism-based; settings: dose 3 mg/kg/day, time 4 day
[25] = tested on: Plasmodium chabaudi; assay: Antimalarial activity against Plasmodium chabaudi ASS infected in NIH mouse assessed as inhibition of parasitemia at 3 mg/kg, po qd for 4 days starting from 4 hrs post-parasite inoculation and measured at 24 hrs after last-drug treatment by Peter's 4-day suppressive test relative to control; assay type: functional; settings: 96 h
[26] = tested on: HepG2; assay: Cytotoxicity against human HepG2 cells assessed as cell viability at 50 uM incubated for 72 hrs by PrestoBlue cell viability reagent based assay; settings: hepg2, 72 h
[27] = molecular target: Cytochrome P450 2C9 (Homo sapiens, UniProt P11712); assay: Inhibition of recombinant human CYP2C9 expressed in baculovirus infected insect cells using tolbutamide as substrate incubated for 30 mins in presence of NADPH-regenerating system by fluorescence based assay; assay type: ADME
[28] = tested on: Plasmodium chabaudi; assay: Antimalarial activity against Plasmodium chabaudi ASS infected po dosed NIH mouse assessed as inhibition of parasitemia administered oce daily for 4 days starting from 4 hrs post parasite-inoculation and measured at 24 hrs post-last treatment by Peter's 4-day suppressive test; assay type: functional; settings: 96 h

Sequence of Cytochrome P450 3A4 (P08684 whole entry): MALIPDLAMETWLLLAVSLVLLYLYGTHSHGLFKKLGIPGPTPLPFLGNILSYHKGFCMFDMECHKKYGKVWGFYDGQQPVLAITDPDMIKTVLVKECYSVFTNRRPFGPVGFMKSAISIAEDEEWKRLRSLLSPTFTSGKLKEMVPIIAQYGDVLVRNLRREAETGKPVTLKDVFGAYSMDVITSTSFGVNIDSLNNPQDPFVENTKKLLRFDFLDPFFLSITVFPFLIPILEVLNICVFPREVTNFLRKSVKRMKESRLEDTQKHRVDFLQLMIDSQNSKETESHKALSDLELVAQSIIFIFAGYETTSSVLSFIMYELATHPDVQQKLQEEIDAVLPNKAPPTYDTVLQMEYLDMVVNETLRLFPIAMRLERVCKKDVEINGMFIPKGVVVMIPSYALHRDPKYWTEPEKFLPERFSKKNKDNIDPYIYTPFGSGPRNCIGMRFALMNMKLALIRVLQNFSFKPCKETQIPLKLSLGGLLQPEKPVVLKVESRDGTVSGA
Sequence of Cytochrome P450 2C19 (P33261 whole entry): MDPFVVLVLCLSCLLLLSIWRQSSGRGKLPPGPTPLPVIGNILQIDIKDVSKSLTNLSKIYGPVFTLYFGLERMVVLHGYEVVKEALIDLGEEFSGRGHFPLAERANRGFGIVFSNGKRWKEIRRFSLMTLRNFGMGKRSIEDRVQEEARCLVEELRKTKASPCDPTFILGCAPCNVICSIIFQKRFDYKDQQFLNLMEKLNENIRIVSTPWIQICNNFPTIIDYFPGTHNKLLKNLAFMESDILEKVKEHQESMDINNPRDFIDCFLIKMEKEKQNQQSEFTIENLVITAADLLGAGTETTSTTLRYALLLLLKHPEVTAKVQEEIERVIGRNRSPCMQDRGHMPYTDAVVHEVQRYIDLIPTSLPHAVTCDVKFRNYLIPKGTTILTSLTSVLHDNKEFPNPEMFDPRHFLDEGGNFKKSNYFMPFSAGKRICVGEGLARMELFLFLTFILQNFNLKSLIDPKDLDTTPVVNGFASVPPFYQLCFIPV
Sequence of Beta-secretase 1 (Homo sapiens) (P56817 whole entry): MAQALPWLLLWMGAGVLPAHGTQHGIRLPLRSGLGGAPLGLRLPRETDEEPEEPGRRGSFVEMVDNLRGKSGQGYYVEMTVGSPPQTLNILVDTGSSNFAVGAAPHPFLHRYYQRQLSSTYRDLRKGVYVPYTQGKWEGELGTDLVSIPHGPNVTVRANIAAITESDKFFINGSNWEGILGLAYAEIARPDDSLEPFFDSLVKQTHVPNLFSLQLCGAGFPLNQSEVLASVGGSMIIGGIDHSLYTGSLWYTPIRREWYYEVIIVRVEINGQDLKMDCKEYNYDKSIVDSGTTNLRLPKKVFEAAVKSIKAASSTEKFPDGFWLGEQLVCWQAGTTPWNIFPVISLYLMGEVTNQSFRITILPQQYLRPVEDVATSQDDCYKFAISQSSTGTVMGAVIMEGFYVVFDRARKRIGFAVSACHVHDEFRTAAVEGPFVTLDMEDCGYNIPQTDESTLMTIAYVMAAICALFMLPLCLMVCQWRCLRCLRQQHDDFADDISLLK
Sequence of Plasmepsin II (Plasmodium falciparum) (P46925 125-453 limits assumed): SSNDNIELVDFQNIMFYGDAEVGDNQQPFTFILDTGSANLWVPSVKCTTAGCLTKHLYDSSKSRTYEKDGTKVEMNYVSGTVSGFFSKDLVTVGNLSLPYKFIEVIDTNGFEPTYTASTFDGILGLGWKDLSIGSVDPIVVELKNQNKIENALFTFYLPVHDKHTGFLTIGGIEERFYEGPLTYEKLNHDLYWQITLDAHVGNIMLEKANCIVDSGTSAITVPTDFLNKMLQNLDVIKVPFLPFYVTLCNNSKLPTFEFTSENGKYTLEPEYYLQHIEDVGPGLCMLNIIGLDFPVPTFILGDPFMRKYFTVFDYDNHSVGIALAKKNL
Sequence of Cytochrome P450 2C9 (P11712 whole entry): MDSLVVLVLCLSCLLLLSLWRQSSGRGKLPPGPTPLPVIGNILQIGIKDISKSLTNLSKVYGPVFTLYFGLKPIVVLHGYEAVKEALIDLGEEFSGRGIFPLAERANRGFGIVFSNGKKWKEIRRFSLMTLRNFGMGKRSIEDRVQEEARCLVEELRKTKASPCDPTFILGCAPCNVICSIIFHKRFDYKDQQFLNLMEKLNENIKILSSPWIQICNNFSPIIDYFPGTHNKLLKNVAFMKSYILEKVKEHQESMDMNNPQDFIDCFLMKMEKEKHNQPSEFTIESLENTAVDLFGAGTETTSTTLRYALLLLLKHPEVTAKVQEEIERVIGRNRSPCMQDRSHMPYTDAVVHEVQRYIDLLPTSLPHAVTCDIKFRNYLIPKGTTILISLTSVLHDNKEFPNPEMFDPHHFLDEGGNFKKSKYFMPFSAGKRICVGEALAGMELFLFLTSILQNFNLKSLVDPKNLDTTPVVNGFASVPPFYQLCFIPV
Sequence of Cytochrome P450 2D6 (P10635 whole entry): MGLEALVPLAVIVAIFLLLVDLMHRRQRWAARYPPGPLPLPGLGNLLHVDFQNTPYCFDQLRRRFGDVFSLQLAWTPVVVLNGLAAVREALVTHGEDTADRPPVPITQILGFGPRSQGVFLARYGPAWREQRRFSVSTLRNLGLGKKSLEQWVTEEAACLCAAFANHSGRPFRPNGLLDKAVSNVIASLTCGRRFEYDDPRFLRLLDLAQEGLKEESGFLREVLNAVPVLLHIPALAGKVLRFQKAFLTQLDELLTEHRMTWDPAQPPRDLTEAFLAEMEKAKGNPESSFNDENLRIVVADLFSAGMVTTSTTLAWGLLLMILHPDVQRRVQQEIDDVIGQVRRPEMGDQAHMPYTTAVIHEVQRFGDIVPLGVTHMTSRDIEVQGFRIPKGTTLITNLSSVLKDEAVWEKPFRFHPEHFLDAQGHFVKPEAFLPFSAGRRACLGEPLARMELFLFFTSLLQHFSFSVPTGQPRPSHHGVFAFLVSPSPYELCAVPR

With CN(C)c1ccc(CC(=O)N[C@@H]2CNC[C@H]2c2ccc(C(C)(F)F)cc2)cc1 the concentration at 96 h [1] was 34.1 nM, the pIC50 [2] was 4.39 and the Activity [3] was “Non-Toxic”. For the same compound, the pIC50 [4] was under 4.00, the inhibition in vivo at 10 mg/kg/day [5] was 94.1% and the concentration at 96 h [6] was 1.7 nM. The pIC50 [7] was 4.30, the Vd [8] was 2.1 L/kg and the pIC50 [9] was 7.29. The concentration at 96 h [10] was 48.9 nM, the concentration at 96 h [11] was 6.6 nM and the inhibition [12] was “inactive”. For the same compound, the pIC50 [13] was 5.60, the concentration at 96 h [14] was 1310 nM and the inhibition [15] was “inactive”. The pIC50 [16] was 7.28, the inhibition [17] was “inactive” and the clearance [18] was 13.8 mL/min/kg. It also gave a concentration at 96 h [19] of 389 nM, a concentration at 96 h [20] of 1150 nM and a concentration at 96 h [21] of 28.5 nM. The inhibition in vivo at 30 mg/kg/day [22] was 99.9%, the half-life [23] was 2.7 h and the concentration at 96 h [24] was 114 nM. For the same compound, the inhibition in vivo at 3 mg/kg/day [25] was 34%, the Activity [26] was “Non-Toxic” and the pIC50 [27] was under 4.00. It also gave an ED90 [28] of under 10 mg/kg/day and an ED99 [28] of 30 mg/kg/day.
